Legend:
[1] = target: porcine pancreatic elastase (PPE) (Sus scrofa, UniProt P00772); assay: Specificity assay (Example 40), porcine pancreatic elastase; type: biochemical
Protocol: (§1) The specificity of the compounds was determined against a variety of serine proteases: human leukocyte elastase, porcine pancreatic elastase and bovine pancreatic α-chymotrypsin and one cysteine protease: human liver cathepsin B. In all cases a 96-well plate format protocol using a calorimetric p-nitroaniline (pNA) substrate specific for each enzyme was used. Each assay included a 1 h enzyme-inhibitor pre-incubation at 30° C. followed by addition of substrate and hydrolysis to ≈30% conversion as measured on a UV Thermomax® microplate reader. Substrate concentrations were kept as low as possible compared to KM to reduce substrate competition. Compound concentrations varied from 300 to 0.06 μM depending on their potency.
(§2) The final conditions for each assay were as follows:
50 mM Tris-HCl pH 8, 0.5 M Na2SO4, 50 mM NaCl, 0.1 mM EDTA, 3% DMSO, 0.01% Tween-20 with;
[100 μM Succ-AAPF-pNA and 250 pM α-chymotrypsin], [133 μM Succ-AAA-pNA and 8 nM porcine elastase], [133 μM Succ-AAV-pNA and 8 nM leukocyte elastase]; or […]
After 60 min pre-incubation at 30° C., 20 μL of substrate solution (50 mM Tris-HCl, pH 8, 0.5 M Na2SO4, 50 mM NaCl, 0.1 mM EDTA, 665 μM Succ-AAA-pNA) were added to each well and the reaction was further incubated at 30° C. for 60 min after which time the absorbance was read on the UV Thermomax® plate reader. […]
The percentage of inhibition was calculated using the formula: […]

[2] = system: NS3 protease in Huh-7 cells co-transfected with NS3-NS4A-NS4B-NS5A-tTA and SEAP constructs; assay: NS3 protease surrogate cell-based assay (Example 39), SEAP reporter; conditions: Homo sapiens, SEAP activity, 24-h incubation, read-out: EC50 as determined by the assay of Example 39
Excerpt: NS3 Protease Cell-based Assay
This assay was done with Huh-7 cells, a human cell line derived from a hepatoma, co-transfected with 2 DNA constructs:
one expressing a polyprotein comprising the HCV non-structural proteins fused to tTA in the following order: NS3-NS4A-NS4B-NS5A-tTA (called NS3);
the other expressing the reporter protein, secreted alkaline phosphatase, under the control of tTA (called SEAP).
The polyprotein must be cleaved by the NS3 protease for the mature proteins to be released. Upon release of the mature proteins, it is believed that the viral proteins will form a complex at the membrane of the endoplasmic reticulum while tTA will migrate to the nucleus and transactivate the SEAP gene. Therefore, reduction of NS3 proteolytic activity should lead to reduction of mature tTA levels and concomitant decrease in SEAP activity.
To control for other effects of the compounds, a parallel transfection was done where a construct expressing tTA alone (called tTA) was co-transfected with the SEAP construct such that SEAP activity is independent of NS3 proteolytic activity. […] After a 24-h incubation period, an aliquot of the medium was drawn and the SEAP activity in this aliquot was measured with the Phospha-Light kit (Tropix). […]

[3] = target: T1, human liver cathepsin B (Cat B) (Homo sapiens, UniProt P07858); assay: Specificity assay (Example 40), human liver cathepsin B; type: biochemical
T1 construct: from tissue; host or cells: human liver
Protocol: as §1, §2
[100 mM NaHPO4 pH 6, 0.1 mM EDTA, 3% DMSO, 1 mM TCEP, 0.01% Tween-20, 30 μM Z-FR-pNA and 5 nM cathepsin B (the stock enzyme was activated in buffer containing 20 mM TCEP before use)].
The sequential 2-fold dilutions of the inhibitor solution were performed on a separate plate by the liquid handler using 50 mM Tris-HCl pH 8, 50 mM NaCl, 0.1 mM EDTA, 0.02% Tween-20, 15% DMSO. All other specificity assays were performed in a similar fashion.
The percentage of inhibition was calculated using the formula:
[1-((UVinh−UVblank)/(UVctl−UVblank))]×100 […]

Chain of porcine pancreatic elastase (PPE) (P00772 27-266): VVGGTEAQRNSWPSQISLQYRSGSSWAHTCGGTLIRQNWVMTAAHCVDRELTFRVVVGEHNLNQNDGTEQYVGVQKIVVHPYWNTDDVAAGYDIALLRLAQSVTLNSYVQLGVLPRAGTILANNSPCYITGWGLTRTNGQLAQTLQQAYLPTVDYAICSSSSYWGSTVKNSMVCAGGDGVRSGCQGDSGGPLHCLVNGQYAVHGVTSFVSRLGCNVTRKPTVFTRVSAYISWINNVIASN

C=C[C@@H]1C[C@]1(NC(=O)[C@@H]1C[C@@H](Oc2cc(-c3ccccc3)nc3cc(OC)ccc23)CN1C(=O)[C@@H](NC(=O)OC(C)(C)C)C(C)C)C(=O)O [compound 601]
IC50 [1]: > 75 µM
EC50 [2]: 8.2 µM
IC50 [3]: > 75 µM
